IC50 data for 20 compounds are collected here from patent US20240299360A1, “ADAMTS INHIBITORS, PREPARATION METHODS AND MEDICINAL USES THEREOF” (Jiangsu Hengrui Pharmaceuticals Co., Ltd., priority 2020, published 2024).

Common to all, as to format: biochemical
In assay [1] the target is ADAMTS-4 recombinant protein (Homo sapiens (Human), UniProt O75173). Description: In vitro fluorescence (FRET-peptide) enzymatic assay of ADAMTS-4 activity. The following applies: FRET peptide substrate 15 μM, 10 nM enzyme, 37° C. 3 hours. How it is done: (§1) A FRET (fluorescence resonance energy transfer) peptide was cleaved by recombinant ADAMTS-4 or ADAMTS-5 proteins into two separate fragments resulting in an increase of fluorescence signal which was quantified. The peptide was 5-FAM-[…](5-TAMRA)K-NH2, customized from ANASPEC. ADAMTS-4 recombinant protein (catalog #4307-AD) and ADAMTS-5 recombinant protein (catalog #2198-AD) were purchased from R&D Systems.
Sequence of ADAMTS-4 recombinant protein (O75173 213-685): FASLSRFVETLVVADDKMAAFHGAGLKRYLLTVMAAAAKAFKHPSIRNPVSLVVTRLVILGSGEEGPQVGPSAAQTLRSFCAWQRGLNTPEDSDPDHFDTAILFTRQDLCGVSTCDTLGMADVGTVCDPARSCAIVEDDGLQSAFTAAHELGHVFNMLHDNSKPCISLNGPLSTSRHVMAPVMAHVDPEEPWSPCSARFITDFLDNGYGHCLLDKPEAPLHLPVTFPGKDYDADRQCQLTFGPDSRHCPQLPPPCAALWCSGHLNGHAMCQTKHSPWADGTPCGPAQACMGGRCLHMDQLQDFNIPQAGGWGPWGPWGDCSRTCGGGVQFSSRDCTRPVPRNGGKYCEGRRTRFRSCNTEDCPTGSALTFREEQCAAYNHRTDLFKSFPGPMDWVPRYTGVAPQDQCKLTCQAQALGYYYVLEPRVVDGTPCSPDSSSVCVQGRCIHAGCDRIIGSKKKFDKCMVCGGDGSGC
(§2) An assay buffer containing 50 mM HEPES pH 7.5, 100 mM NaCl, 5 mM CaCl2, 0.1% CHAPS and 5% Glycerol was prepared. A volume of 2.5 μl of compound in the assay buffer was dispensed to a 384-well plate, and 2.5 μl of ADAMTS-4 or ADAMTS-5 protein (final concentration in the reaction was 10 nM) was added. The compounds and proteins were pre-incubated at room temperature for 15 minutes. Then, 5 μl of substrate was added to each well. The final substrate concentrations for ADAMTS-4 and ADAMTS-5 were 15 μM and 8 μM, respectively. The fluorescence signal in each well was determined, after incubation at 37° C. for 3 hours, on a TECAN plate reader (Excitation, 490 nm; Emission, 520 nm).
(§3) The data was inputted into GraphPad Prism, and the IC50 values were calculated using function “log (inhibitor) vs. response—Variable slope (four parameters)”. (See Table 1)

The target in assay [2] is T1, ADAMTS-5 recombinant protein (Homo sapiens (Human), UniProt Q9UNA0). Description: In vitro fluorescence (FRET-peptide) enzymatic assay of ADAMTS-5 activity. The following applies: FRET peptide substrate 8 μM, 10 nM enzyme, 37° C. 3 hours. The method, then:
as §1, §2, §3

For assay [3], the target named is T1, ADAMTS-5 recombinant protein. Description: In vitro ELISA of ADAMTS-5 activity (Aggrecan-IGD enzymatic assay). The conditions noted are these: aggrecan-IGD substrate, ARGSVIL-peptide ELISA, 37° C. 45 minutes. How it is done: In this assay, the enzymatic activity of recombinant ADAMTS-5 protein (catalog #2198-AD, R&D Systems) was assayed with a protein substrate, the aggrecan IGD protein. The aggrecan IGD protein is a polypeptide connecting human aggrecan globular domains 1 and 2 (T331-G458) expressed in E. Coli with a C-terminal His-tag (catalog #30411000, BIOTEZ). The enzymatic product ARGSVIL-peptide was detected using an ELISA kit from BioTEZ (catalog #30510111).
An assay buffer containing 50 mM HEPES pH 7.5, 100 mM NaCl, 5 mM CaCl2), 0.1% CHAPS and 5% Glycerol was prepared. Recombinant ADAMTS-5 protein was diluted to 0.3 nM in the assay buffer. Ten μl of […] and 10 μl of compound solution was transferred to each well of a 96-well plate and incubated at room temperature for 15 minutes. Substrate aggrecan-IGD was diluted to 100 nM with the assay buffer and 20 μl was added to each well. The plate was incubated at 37° C. for 45 minutes. After incubation, the newly generated epitope ARGSVIL-peptides were measured using the Aggrecanase Activity ELISA Assay Kit following the manufacturer's instructions. Then, 100 μl of stop solution was added and the absorbance of each well was read at 450 nm, using […] as reference on a TECAN plate reader.
A standard curve of the ELISA assay was generated in GraphPad Prism using Sigmoidal 4PL function and the corresponding peptide concentrations were calculated based on the standard curve. The IC50 values were calculated using function “log (inhibitor) vs. response—Variable slope (four parameters)”. (See Table 2).
A general note: ELISA stands for enzyme-linked immunosorbent assay.

T1 sequence (Q9UNA0 262-622): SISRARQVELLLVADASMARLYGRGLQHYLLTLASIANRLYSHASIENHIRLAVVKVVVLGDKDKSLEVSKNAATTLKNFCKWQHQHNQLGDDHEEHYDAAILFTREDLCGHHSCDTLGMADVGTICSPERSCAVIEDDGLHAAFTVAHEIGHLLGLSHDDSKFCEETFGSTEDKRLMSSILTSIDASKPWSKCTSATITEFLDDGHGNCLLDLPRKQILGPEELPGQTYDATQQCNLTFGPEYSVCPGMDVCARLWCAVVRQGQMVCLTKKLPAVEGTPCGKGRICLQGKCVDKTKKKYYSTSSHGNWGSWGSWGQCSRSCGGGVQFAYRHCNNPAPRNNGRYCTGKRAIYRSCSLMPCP

Take `O=C1NC(=O)[C@](CCC(=O)N2CCc3cc(C(F)(F)F)ccc3C2)(C2CC2)N1` [Example 6, (S)-5-cyclopropyl-5-(3-oxo-3-(6-(trifluoromethyl)-3,4-dihydroisoquinolin-2 (1H)-yl)propyl)imidazolidine-2,4-dione]: the IC50 – broadly, the concentration that inhibits the measured activity by half – is 0.056 µM in assay [1], 0.24 µM in assay [2] and 0.65 µM in assay [3].

Regarding `O=C1NC(=O)[C@](CCC(=O)N2Cc3ccccc3C2)(C2CC2)N1` [Example 11, (S)-5-cyclopropyl-5-(3-(isoindolin-2-yl)-3-oxopropyl)imidazolidine-2,4-dione], the IC50 in assay [1] came out at 0.11 µM; in assay [2], 0.41 µM; in assay [3], 0.56 µM.

For `CC1CN(C(=O)CC[C@@]2(C3CC3)NC(=O)NC2=O)CCc2ccc(F)cc21` (stereo partly drawn) [Example 22, (5S)-5-cyclopropyl-5-(3-(8-fluoro-1-methyl-1,2,4,5-tetrahydro-3H-benzo[d]azepin-3-y1)-3-oxopropyl)imidazolidine-2,4-dione], the IC50 worked out at 0.051 µM in assay [1], 0.061 µM in assay [2] and 0.14 µM in assay [3].

Take `COc1ccc2c(c1)CN(C(=O)CC[C@@]1(C3CC3)NC(=O)NC1=O)C2` [Example 24, (S)-5-cyclopropyl-5-(3-(5-methoxyisoindolin-2-yl)-3-oxopropyl)imidazolidine-2,4-dione]: the IC50 is 0.12 µM in assay [1], 0.36 µM in assay [2] and 0.84 µM in assay [3].

Turning to `CC(C[C@@]1(C2CC2)NC(=O)NC1=O)C(=O)N1Cc2ccc(C(F)(F)F)cc2C1` (stereo partly drawn) [Example 29, (5S)-5-cyclopropyl-5-(2-methyl-3-oxo-3-(5-(trifluoromethyl)isoindolin-2-yl)propyl)imidazolidine-2,4-dione], the IC50 is 0.014 µM in assay [1], 0.022 µM in assay [2] and 0.056 µM in assay [3].

`COc1cc2c(cc1Cl)CN(C(=O)CC[C@@]1(C3CC3)NC(=O)NC1=O)C2` [Example 35, (S)-5-(3-(5-chloro-6-methoxyisoindolin-2-yl)-3-oxopropyl)-5-cyclopropylimidazolidine-2,4-dione]: the IC50 in assay [1] was found to be 0.23 µM; in assay [2], 0.11 µM; in assay [3], 0.17 µM.

As to `COc1cc2c(cc1Cl)CN(C(=O)C(C)C[C@@]1(C3CC3)NC(=O)NC1=O)C2` (stereo partly drawn) [Example 36-1, (5S)-5-(3-(5-chloro-6-methoxyisoindolin-2-yl)-2-methyl-3-oxopropyl)-5-cyclopropylimidazolidine-2,4-dione], the figures for the IC50 in assay [1], in assay [2] and in assay [3] were 0.021 µM, 0.015 µM and 0.036 µM, respectively.

On to `CC1CN(C(=O)CC[C@@]2(C3CC3)NC(=O)NC2=O)CCc2cc(Cl)c(Cl)cc21` (stereo partly drawn) [Example 37, (S)-5-cyclopropyl-5-(3-(7,8-dichloro-1-methyl-1,2,4,5-tetrahydro-3H-benzo [d]azepin-3-yl)-3-oxopropyl)imidazolidine-2,4-dione], for which the values for the IC50 in assay [1], in assay [2] and in assay [3] were 0.005 µM, 0.013 µM and 0.016 µM, respectively.

In the case of `CC1CN(C(=O)CC[C@@]2(C3CC3)NC(=O)NC2=O)CCc2ccc(Cl)c(Cl)c21` (stereo partly drawn) [Example 38, (S)-5-cyclopropyl-5-(3-(8,9-dichloro-1-methyl-1,2,4,5-tetrahydro-3H-benzo [d]azepin-3-yl)-3-oxopropyl)imidazolidine-2,4-dione], the IC50 in assay [1] is 0.062 µM; in assay [2], 0.031 µM; in assay [3], 0.029 µM.

For `O=C1NC(=O)[C@](CCC(=O)N2Cc3cc(F)c(C(F)(F)F)cc3C2)(C2CC2)N1` [Example 39, (S)-5-cyclopropyl-5-(3-(5-fluoro-6-(trifluoromethyl)isoindolin-2-yl)-3-oxopropyl)imidazolidine-2,4-dione], the IC50 in assay [1] was found to be 0.11 µM; in assay [2], 0.062 µM; in assay [3] it was 0.065 µM.

Consider `CC1c2cc(C(F)(F)F)c(Cl)cc2CN1C(=O)CC[C@@]1(C2CC2)NC(=O)NC1=O` (stereo partly drawn) [Example 41, (5S)-5-(3-(5-chloro-1-methyl-6-(trifluoromethyl)isoindolin-2-yl)-3-oxopropyl)-5-cyclopropylimidazolidine-2,4-dione], for which the IC50 in assay [1] came to 0.036 µM; in assay [2] it was 0.021 µM; in assay [3], 0.018 µM.

Regarding `CC(C)C(C[C@@]1(C2CC2)NC(=O)NC1=O)C(=O)N1Cc2ccc(C(F)(F)F)cc2C1` (stereo partly drawn) [Example 49-2, (5S)-5-cyclopropyl-5-(3-methyl-2-(5-(trifluoromethyl)isoindoline-2-carbonyl)butyl)imidazolidine-2,4-dione], the IC50 in assay [1] was 0.015 µM; in assay [2], 0.02 µM; in assay [3] it was 0.055 µM.

Take `Nc1cc2c(cc1Cl)CN(C(=O)CC[C@@]1(C3CC3)NC(=O)NC1=O)C2` [Example 54, (S)-5-(3-(5-amino-6-chloroisoindolin-2-yl)-3-oxopropyl)-5-cyclopropylimidazolidine-2,4-dione]: the IC50 stood at 0.011 µM in assay [1], 0.11 µM in assay [2] and 0.2 µM in assay [3].

On to `Cc1cc2c(cc1Cl)CN(C(=O)CC[C@@]1(C3CC3)NC(=O)NC1=O)C2` [Example 57, (S)-5-(3-(5-chloro-6-methylisoindolin-2-yl)-3-oxopropyl)-5-cyclopropylimidazolidine-2,4-dione], for which the figures for the IC50 in assay [1], in assay [2] and in assay [3] were 0.043 µM, 0.13 µM and 0.19 µM, respectively.

In the case of `O=C1NC(=O)C(CCC(=O)N2Cc3cc(Cl)c(Cl)cc3C2)(c2ccccn2)N1` (stereo not drawn) [Example 61, 5-(3-(5,6-dichloroisoindolin-2-yl)-3-oxopropyl)-5-(pyridin-2-yl)imidazolidine-2,4-dione], the IC50 in assay [1] amounted to 0.04 µM; in assay [2], 0.042 µM; in assay [3], 0.072 µM.

For the compound `Cn1ccnc1C1(CCC(=O)N2Cc3ccc(C(F)(F)F)cc3C2)NC(=O)NC1=O` (stereo not drawn) [Example 62, 5-(1-methyl-1H-imidazol-2-yl)-5-(3-oxo-3-(5-(trifluoromethyl)isoindolin-2-yl)propyl)imidazolidine-2,4-dione], the IC50 in assay [1] came out at 0.1 µM; in assay [2] it was 0.089 µM; in assay [3], 0.29 µM.

With `O=C1NC(=O)C(CC(COCc2ccccc2)C(=O)N2Cc3ccc(C(F)(F)F)cc3C2)(C2CC2)N1` (stereo not drawn) [Example 65, 5-(2-((benzyloxy)methyl)-3-oxo-3-(5-(trifluoromethyl)isoindolin-2-yl)propyl)-5-cyclopropylimidazolidine-2,4-dione], the values for the IC50 in assay [1], in assay [2] and in assay [3] were 0.016 µM, 0.021 µM and 0.031 µM, respectively.

For `CC1c2cc(Cl)c(Cl)cc2CN1C(=O)CC[C@@]1(C2CC2)NC(=O)NC1=O` (stereo partly drawn) [Example 66, (5S)-5-cyclopropyl-5-(3-(5,6-dichloro-1-methylisoindolin-2-yl)-3-oxopropyl)imidazolidine-2,4-dione], the IC50 came out at 0.043 µM in assay [1], 0.052 µM in assay [2] and 0.083 µM in assay [3].

On to `[2H]C1([2H])c2cc(Cl)c(Cl)cc2C(C)N1C(=O)CC[C@@]1(C2CC2)NC(=O)NC1=O` (stereo partly drawn) [Example 69, (5S)-5-cyclopropyl-5-(3-(5,6-dichloro-1-methylisoindolin-2-yl-3,3-d2)-3-oxopropyl)imidazolidine-2,4-dione], for which the IC50 in assay [1] was 0.068 µM; in assay [2], 0.04 µM; in assay [3], 0.047 µM.

Turning to `[2H]C1([2H])c2cc(Cl)c(C(F)(F)F)cc2C(C)N1C(=O)CC[C@@]1(C2CC2)NC(=O)NC1=O` (stereo partly drawn) [Example 71, (5S)-5-(3-(5-chloro-1-methyl-6-(trifluoromethyl)isoindolin-2-yl-3,3-d2)-3-oxopropyl)-5-cyclopropylimidazolidine-2,4-dione], the IC50 turned out to be 0.054 µM in assay [1], 0.026 µM in assay [2] and 0.029 µM in assay [3].
